In paper PMC12281424, “A Rac-specific competitive inhibitor of guanine nucleotide binding reduces metastasis in triple-negative breast cancer” (Cell Reports Medicine, 2025):

How the values were obtained:
[1] = Ames fluctuation test (7th group); format: cell-based
Description: Data S3. Ames-fluctuation assay-A41.
Test Concentration Count Positive Significance Fisher Exact Test

Adrenergic α1B = Adrenergic α1B (Rattus norvegicus, UniProt P15823); assay: Safety screen; format: binding
Description: (§1) Blood cell counts, kinase profiler, safety screen, bacterial cytotoxicity, Ames, micronucleus assays were performed by the company Eurofins (France).

Chemokine CXCR2 (IL-8RB) = Chemokine CXCR2 (IL-8RB) (Homo sapiens, UniProt P25025); assay: Safety screen; format: binding
Description: as §1

Glutamate, NMDA, Glycine = assay: Safety screen; format: binding, rat
Description: (§2) Blood cell counts, kinase profiler, safety screen, bacterial cytotoxicity, Ames, micronucleus assays were performed by the company Eurofins (France). The kinase profiler was performed by the company Eurofins (Discovery, Panlab and Cerep).

Nicotinic Acetylcholine = assay: Safety screen; format: binding, human
Description: as §1

[2] = molecular target: Transporter, Norepinephrine (NET) (Homo sapiens, UniProt P23975); assay: Safety screen; format: binding
Description: as §1

ACTR2(h) = ACTR2(h) (Homo sapiens, UniProt P27037); assay: Kinase Profiler; format: biochemical
Description: (§3) The kinase profiler was performed by the company Eurofins (Discovery, Panlab and Cerep).

BRK(h) = BRK(h) (Homo sapiens, UniProt Q13882); assay: Kinase Profiler; format: biochemical
Description: as §2

Cdc7/cyclinB1(h) = Cdc7/cyclinB1(h) (Homo sapiens, UniProt O00311); assay: Kinase Profiler; format: biochemical
Description: as §3

CDK16/cyclinY(h) = CDK16/cyclinY(h) (Homo sapiens, UniProt Q00536); assay: Kinase Profiler; format: biochemical
Description: as §2

ChaK1(h) = ChaK1(h) (Homo sapiens, UniProt Q96QT4); assay: Kinase Profiler; format: biochemical
Description: as §3

CK1γ2(h) = CK1γ2(h) (Homo sapiens, UniProt P78368); assay: Kinase Profiler; format: biochemical
Description: as §2

cSRC(h) = cSRC(h) (Homo sapiens, UniProt P12931); assay: Kinase Profiler; format: biochemical
Description: as §3

DMPK(h) = DMPK(h) (Homo sapiens, UniProt Q09013); assay: Kinase Profiler; format: biochemical
Description: as §2

EphA2(h) = EphA2(h) (Homo sapiens, UniProt P29317); assay: Kinase Profiler; format: biochemical
Description: as §2

EphA7(h) = EphA7(h) (Homo sapiens, UniProt Q15375); assay: Kinase Profiler; format: biochemical
Description: as §2

EphB1(h) = EphB1(h) (Homo sapiens, UniProt P54762); assay: Kinase Profiler; format: biochemical
Description: as §2

Fer(h) = Fer(h) (Homo sapiens, UniProt P16591); assay: Kinase Profiler; format: biochemical
Description: as §3

FGFR2(h) = FGFR2(h) (Homo sapiens, UniProt P21802); assay: Kinase Profiler; format: biochemical
Description: as §3

FGFR2(N549H)(h) = FGFR2(N549H)(h) (Homo sapiens, UniProt P21802, N549H); assay: Kinase Profiler; format: biochemical
Description: as §3

Fyn(h) = Fyn(h) (Homo sapiens, UniProt P06241); assay: Kinase Profiler; format: biochemical
Description: as §3

HIPK3(h) = HIPK3(h) (Homo sapiens, UniProt Q9H422); assay: Kinase Profiler; format: biochemical
Description: as §3

IGF-1R(h), activated = IGF-1R(h), activated (Homo sapiens, UniProt P08069); assay: Kinase Profiler; format: biochemical
Description: as §2

IKKε(h) = IKKε(h) (Homo sapiens, UniProt Q14164); assay: Kinase Profiler; format: biochemical
Description: as §2

JNK1α1(h) = JNK1α1(h) (Homo sapiens, UniProt P45983); assay: Kinase Profiler; format: biochemical
Description: as §3

LKB1(h) = LKB1(h) (Homo sapiens, UniProt Q15831); assay: Kinase Profiler; format: biochemical
Description: as §3

MAPK2(h) = MAPK2(h) (Homo sapiens, UniProt P28482); assay: Kinase Profiler; format: biochemical
Description: as §3

MAPK2(m) = MAPK2(m) (Mus musculus, UniProt P63085); assay: Kinase Profiler; format: biochemical
Description: as §3

Met(Y1248H)(h) = Met(Y1248H)(h) (Homo sapiens, UniProt P08581, Y1230H); assay: Kinase Profiler; format: biochemical
Description: as §3

MLK1(h) = MLK1(h) (Homo sapiens, UniProt P80192); assay: Kinase Profiler; format: biochemical
Description: as §2

NIM1(h) = NIM1(h) (Homo sapiens, UniProt Q8IY84); assay: Kinase Profiler; format: biochemical
Description: as §3

PAR-1Bα(h) = PAR-1Bα(h) (Homo sapiens, UniProt Q7KZI7); assay: Kinase Profiler; format: biochemical
Description: as §3

PKAcβ(h) = PKAcβ(h) (Homo sapiens, UniProt P22694); assay: Kinase Profiler; format: biochemical
Description: as §2

Plk4(h) = Plk4(h) (Homo sapiens, UniProt O00444); assay: Kinase Profiler; format: biochemical
Description: as §2

Rsk1(r) = Rsk1(r) (Rattus norvegicus, UniProt Q63531); assay: Kinase Profiler; format: biochemical
Description: as §3

SRPK1(h) = SRPK1(h) (Homo sapiens, UniProt Q96SB4); assay: Kinase Profiler; format: biochemical
Description: as §3

TBK1(h) = TBK1(h) (Homo sapiens, UniProt Q9UHD2); assay: Kinase Profiler; format: biochemical
Description: as §2

VRK2(h) = VRK2(h) (Homo sapiens, UniProt Q86Y07); assay: Kinase Profiler; format: biochemical
Description: as §3

PI3K (p110a/p65a)(m) = assay: Kinase Profiler; format: biochemical, mouse
Description: as §2

PI3K (p110b/p85b)(m) = PI3K (p110b/p85b)(m) (Mus musculus, UniProt Q8BTI9); assay: Kinase Profiler; format: biochemical
Description: as §2

PI3KC2g(h) = PI3KC2g(h) (Homo sapiens, UniProt O75747); assay: Kinase Profiler; format: biochemical
Description: as §3

Sequence of Transporter, Norepinephrine (NET) (P23975 whole entry): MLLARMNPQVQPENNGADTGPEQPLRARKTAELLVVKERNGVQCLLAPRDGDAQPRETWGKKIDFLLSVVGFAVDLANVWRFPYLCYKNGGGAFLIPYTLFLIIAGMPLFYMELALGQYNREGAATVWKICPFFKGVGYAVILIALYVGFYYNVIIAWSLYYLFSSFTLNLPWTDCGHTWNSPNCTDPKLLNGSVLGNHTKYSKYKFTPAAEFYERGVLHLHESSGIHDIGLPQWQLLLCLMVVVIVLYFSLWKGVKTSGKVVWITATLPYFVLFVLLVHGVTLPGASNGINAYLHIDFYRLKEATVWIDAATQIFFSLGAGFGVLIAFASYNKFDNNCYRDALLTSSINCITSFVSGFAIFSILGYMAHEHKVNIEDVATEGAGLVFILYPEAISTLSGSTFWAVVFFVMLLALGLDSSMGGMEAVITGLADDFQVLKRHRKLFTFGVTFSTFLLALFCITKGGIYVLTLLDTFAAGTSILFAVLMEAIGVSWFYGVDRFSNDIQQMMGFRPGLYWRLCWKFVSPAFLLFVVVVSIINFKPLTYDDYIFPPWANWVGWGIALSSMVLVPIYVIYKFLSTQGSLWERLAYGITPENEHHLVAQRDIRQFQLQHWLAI
Sequence of CK1γ2(h) (P78368 whole entry): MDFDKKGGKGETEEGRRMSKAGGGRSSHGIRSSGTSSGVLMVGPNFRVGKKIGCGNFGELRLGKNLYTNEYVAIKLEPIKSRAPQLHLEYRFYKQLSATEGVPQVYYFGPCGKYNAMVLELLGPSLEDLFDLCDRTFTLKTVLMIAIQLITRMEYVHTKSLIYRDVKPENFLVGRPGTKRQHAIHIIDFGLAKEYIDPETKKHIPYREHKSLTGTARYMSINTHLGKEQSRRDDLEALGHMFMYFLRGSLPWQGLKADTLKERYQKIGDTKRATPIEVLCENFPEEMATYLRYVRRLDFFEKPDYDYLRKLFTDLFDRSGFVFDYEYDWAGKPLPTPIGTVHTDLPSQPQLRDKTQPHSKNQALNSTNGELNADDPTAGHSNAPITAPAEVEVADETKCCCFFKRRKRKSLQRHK
Sequence of Cdc7/cyclinB1(h) (O00311 whole entry): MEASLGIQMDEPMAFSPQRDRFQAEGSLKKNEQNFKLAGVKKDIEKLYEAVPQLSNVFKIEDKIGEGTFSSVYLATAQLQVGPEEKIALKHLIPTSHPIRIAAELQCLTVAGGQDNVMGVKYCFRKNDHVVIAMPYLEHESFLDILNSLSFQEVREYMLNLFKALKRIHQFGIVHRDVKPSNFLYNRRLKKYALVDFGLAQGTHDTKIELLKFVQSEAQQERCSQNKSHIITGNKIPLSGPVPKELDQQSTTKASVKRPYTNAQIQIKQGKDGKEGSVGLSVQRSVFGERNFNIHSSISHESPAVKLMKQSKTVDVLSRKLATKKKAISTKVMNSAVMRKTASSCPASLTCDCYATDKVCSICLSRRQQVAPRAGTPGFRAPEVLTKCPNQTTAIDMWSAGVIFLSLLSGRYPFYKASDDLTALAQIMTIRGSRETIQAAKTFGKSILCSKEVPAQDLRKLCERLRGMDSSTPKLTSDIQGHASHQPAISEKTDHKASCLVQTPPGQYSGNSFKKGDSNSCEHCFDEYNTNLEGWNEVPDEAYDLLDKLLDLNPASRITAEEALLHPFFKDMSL
Sequence of MAPK2(h) (P28482 whole entry): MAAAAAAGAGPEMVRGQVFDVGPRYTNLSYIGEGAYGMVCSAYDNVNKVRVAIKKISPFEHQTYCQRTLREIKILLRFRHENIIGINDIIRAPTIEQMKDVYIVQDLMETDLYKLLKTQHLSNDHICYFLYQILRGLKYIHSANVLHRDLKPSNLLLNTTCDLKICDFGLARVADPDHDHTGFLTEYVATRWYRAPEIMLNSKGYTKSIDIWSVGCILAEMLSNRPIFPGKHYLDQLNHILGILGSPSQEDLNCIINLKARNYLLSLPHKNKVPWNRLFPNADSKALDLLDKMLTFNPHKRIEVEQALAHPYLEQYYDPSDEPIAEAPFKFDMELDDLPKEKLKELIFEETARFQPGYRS
Sequence of ChaK1(h) (Q96QT4 whole entry): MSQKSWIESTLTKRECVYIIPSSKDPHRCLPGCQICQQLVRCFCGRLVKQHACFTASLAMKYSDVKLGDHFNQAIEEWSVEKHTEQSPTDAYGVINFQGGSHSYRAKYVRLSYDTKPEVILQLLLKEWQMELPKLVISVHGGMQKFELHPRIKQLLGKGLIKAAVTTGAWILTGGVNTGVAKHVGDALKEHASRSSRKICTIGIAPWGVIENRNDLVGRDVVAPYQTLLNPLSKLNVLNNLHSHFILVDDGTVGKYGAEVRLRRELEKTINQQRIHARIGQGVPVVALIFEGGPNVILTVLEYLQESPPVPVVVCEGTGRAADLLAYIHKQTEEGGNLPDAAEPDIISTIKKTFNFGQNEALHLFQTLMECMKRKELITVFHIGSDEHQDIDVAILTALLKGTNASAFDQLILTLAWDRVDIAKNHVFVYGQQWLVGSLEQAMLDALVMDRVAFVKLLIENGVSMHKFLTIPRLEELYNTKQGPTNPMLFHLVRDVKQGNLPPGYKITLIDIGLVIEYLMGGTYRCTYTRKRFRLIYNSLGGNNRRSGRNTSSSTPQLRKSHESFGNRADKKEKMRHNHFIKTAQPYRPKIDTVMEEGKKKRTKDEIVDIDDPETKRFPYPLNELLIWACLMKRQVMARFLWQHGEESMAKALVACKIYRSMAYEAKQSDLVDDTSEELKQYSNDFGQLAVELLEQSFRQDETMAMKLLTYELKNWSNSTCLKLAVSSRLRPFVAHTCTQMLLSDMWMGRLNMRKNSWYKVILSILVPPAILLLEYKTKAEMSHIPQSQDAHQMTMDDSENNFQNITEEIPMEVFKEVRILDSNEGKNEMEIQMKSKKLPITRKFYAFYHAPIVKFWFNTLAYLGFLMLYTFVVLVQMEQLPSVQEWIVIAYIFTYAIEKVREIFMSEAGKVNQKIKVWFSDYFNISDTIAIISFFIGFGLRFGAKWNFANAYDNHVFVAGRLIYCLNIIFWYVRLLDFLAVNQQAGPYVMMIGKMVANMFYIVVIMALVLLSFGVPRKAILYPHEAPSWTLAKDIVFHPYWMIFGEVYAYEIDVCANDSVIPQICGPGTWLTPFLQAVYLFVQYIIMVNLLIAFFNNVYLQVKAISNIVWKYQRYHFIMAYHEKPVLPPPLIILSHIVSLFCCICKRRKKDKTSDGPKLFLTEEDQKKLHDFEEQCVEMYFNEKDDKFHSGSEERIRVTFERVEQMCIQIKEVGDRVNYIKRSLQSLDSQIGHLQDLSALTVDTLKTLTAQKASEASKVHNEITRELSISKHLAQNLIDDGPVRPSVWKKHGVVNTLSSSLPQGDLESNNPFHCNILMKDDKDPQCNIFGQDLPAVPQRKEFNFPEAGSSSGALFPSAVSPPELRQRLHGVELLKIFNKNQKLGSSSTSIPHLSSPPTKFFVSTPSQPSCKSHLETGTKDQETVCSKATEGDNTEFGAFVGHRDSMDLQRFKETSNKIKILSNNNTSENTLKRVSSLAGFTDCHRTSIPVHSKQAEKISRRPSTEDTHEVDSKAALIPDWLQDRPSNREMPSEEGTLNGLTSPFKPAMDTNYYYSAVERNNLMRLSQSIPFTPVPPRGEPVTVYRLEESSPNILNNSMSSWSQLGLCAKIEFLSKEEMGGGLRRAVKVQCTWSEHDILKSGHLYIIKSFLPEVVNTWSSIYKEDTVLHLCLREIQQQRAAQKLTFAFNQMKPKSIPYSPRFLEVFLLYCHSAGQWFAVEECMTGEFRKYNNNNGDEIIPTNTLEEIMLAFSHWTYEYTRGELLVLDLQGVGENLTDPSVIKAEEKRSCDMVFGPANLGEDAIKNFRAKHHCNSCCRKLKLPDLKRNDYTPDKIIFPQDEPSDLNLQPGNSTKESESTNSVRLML
Sequence of EphB1(h) (P54762 18-984): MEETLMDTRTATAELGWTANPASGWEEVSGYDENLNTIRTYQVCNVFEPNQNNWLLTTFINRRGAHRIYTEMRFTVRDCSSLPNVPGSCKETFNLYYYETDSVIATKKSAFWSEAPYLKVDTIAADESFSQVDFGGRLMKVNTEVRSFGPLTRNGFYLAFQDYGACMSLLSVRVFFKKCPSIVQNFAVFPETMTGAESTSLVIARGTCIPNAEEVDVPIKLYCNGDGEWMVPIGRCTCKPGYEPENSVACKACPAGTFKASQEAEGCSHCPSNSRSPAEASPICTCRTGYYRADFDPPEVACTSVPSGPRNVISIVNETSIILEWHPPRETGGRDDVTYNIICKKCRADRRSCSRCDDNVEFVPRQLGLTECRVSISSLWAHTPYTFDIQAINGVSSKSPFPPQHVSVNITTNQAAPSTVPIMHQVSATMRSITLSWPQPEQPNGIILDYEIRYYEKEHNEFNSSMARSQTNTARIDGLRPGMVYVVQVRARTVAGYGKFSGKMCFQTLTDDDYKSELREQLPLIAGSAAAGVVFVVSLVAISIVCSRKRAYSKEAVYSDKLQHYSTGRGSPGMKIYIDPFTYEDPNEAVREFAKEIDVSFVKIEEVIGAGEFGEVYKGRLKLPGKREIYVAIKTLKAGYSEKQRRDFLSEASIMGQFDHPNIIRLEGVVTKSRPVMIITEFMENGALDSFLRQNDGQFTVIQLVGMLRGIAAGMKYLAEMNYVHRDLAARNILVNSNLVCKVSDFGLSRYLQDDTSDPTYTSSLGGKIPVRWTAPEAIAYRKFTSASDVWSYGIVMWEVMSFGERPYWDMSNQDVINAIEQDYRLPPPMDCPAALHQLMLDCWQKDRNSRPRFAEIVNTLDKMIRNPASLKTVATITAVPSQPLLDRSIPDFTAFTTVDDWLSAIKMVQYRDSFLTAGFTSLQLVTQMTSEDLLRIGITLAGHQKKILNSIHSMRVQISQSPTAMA

## COc1ccc(OC)c(NS(=O)(=O)c2ccc(NC(=O)CCSc3ccc(C)cc3)cc2)c1 [Compound A41]
[1]; 1.0E-04 M
  Count Positive (# of wells): 1
[1]; 1.0E-05 M
  Count Positive (# of wells): 0
[1]; 5.0E-05 M
  Count Positive (# of wells): 0
[1]; 5.0E-06 M
  Count Positive (# of wells): 1
Adrenergic α1B
  % inh.: 41%
Chemokine CXCR2 (IL-8RB)
  % inh.: 1%
Glutamate, NMDA, Glycine
  % inh.: 7%
Nicotinic Acetylcholine
  % inh.: -3%
[2]
  % inh.: 36%
ACTR2(h)
  Activity(%): 108%
BRK(h)
  Activity(%): 107%
Cdc7/cyclinB1(h)
  Activity(%): 92%
CDK16/cyclinY(h)
  Activity(%): 107%
ChaK1(h)
  Activity(%): 104%
CK1γ2(h)
  Activity(%): 112%
cSRC(h)
  Activity(%): 111%
DMPK(h)
  Activity(%): 98%
EphA2(h)
  Activity(%): 98%
EphA7(h)
  Activity(%): 108%
EphB1(h)
  Activity(%): 111%
Fer(h)
  Activity(%): 114%
FGFR2(h)
  Activity(%): 89%
FGFR2(N549H)(h)
  Activity(%): 105%
Fyn(h)
  Activity(%): 102%
HIPK3(h)
  Activity(%): 95%
IGF-1R(h), activated
  Activity(%): 108%
IKKε(h)
  Activity(%): 106%
JNK1α1(h)
  Activity(%): 94%
LKB1(h)
  Activity(%): 107%
MAPK2(h)
  Activity(%): 103%
MAPK2(m)
  Activity(%): 108%
Met(Y1248H)(h)
  Activity(%): 120%
MLK1(h)
  Activity(%): 102%
NIM1(h)
  Activity(%): 105%
PAR-1Bα(h)
  Activity(%): 111%
PKAcβ(h)
  Activity(%): 116%
Plk4(h)
  Activity(%): 104%
Rsk1(r)
  Activity(%): 128%
SRPK1(h)
  Activity(%): 114%
TBK1(h)
  Activity(%): 102%
VRK2(h)
  Activity(%): 110%
PI3K (p110a/p65a)(m)
  Activity(%): 100%
PI3K (p110b/p85b)(m)
  Activity(%): 100%
PI3KC2g(h)
  Activity(%): 114%
